Assay results reported in BigSolDB 2.1.

O=c1cc(CBr)c2ccccc2[nH]1
solubility (mole fraction)
Conditions	278.15 K	283.15 K	288.15 K	293.15 K	298.15 K	303.15 K	308.15 K	313.15 K	318.15 K
in NMP	0.00539	0.00606	0.00705	0.0081	0.00928	0.0105	0.0119	0.0135	0.0151
in ethanol	0.00019	0.000211	0.000235	0.000261	0.000286	0.000316	0.000347	0.000378	0.000411
in isopropanol	0.000152	0.000175	0.000202	0.000229	0.00026	0.000293	0.000328	0.000365	0.000406
in n-propanol	0.000242	0.000269	0.000297	0.000325	0.000357	0.00039	0.00043	0.000466	0.000505
in water	4.78e-06	6.58e-06	9.12e-06	1.25e-05	1.67e-05	2.16e-05	2.88e-05	3.76e-05	4.76e-05
